Measurements from BindingDB's records for doi:10.1016/j.bmcl.2006.07.014 (Glaxosmithkline, 2006).

Molecular target: T1, Dimer of Gag-Pol polyprotein [501-599,Q508K,L534I,L564I,C568A,C596A] (Human immunodeficiency virus 1, UniProt P03367, C568A/C596A/L534I/L564I/Q508K)
T1 construct: 501-599
Test: Protease Inhibition Assay
Settings: pH 6.4; 25 °C
Experimental: The Ki values were determined using fluorogenic substrate, 2-(aminobenzoyl)-Thr-Ile-Nle-Phe(p-NO2)-Gln-ArgNH2. A standard curve relating changes in fluorescent intensity to changes in concentration of product was used to convert fluorescent changes into molar velocities. The amount of cleavage was determined by HPLC.

Row | SMILES | Ki
1 | COc1ccc(S(=O)(=O)N(CC2CCCC2)C[C@@H](O)CN2C(=O)COC[C@@H]2Cc2ccccc2)cc1 | 1000 nM
2 | COc1ccc(S(=O)(=O)N(CC2CCCC2)C[C@@H](O)CN2C(=O)C3(CCOCC3)OC[C@@H]2Cc2ccccc2)cc1 [(2S)-3-[(3S)-3-benzyl-5-oxo-1,9-dioxa-4-azaspiro[5.5]undecan-4-yl]-N-(cyclopentylmethyl)-2-hydroxy-N-(4-methoxyphenyl)propane-1-sulfonamido] | 23 nM
